One series deals with T1, Potassium channel (Rattus norvegicus, UniProt Q63563).
T1 construct: a segment of an excised aorta of a Wistar rat; from tissue; host or cells: excised aorta segment of Wistar rat
Description: Potassium channel opening activity, 86Rb release from excised rat aorta segment. The series is classed as cell-based, Wistar rat. The settings on record: for potassium channel opening activity (in words): conclusion from Table 5; for ECAUC0.2 (effective concentration at which the area under the peak of the 86Rb release rate reached 0.2): rat aorta segment surface-perfused with test compound for 10 minutes.

For the next series, the system named is Guinea Pig Tracheae. Description: Relaxing activity in guinea pig tracheae contracted with 30 mM potassium chloride. The series is classed as cell-based. The note with it: for EC50: Cavia porcellus, relaxation by 10^-8 g/ml isoproterenol as 100%, read-out: EC50 (concentration inducing 50% relaxation). How it is done:
Male guinea pigs (body weight: 400-650 g) were sacrificed by exsanguination, and tracheae were excised.
Tracheal responses were measured isometrically using a transducer "EF-601G" (manufactured by Nihon Koden Kogyo Co., Ltd.) and recorded on a multi-pen recorder "R64 GP" (manufactured by Rika Denki Co., Ltd.). The initial tension in the tracheal preparation was set up at 1 g after the preparation had equilibrated for about 60 minutes, a 30 mM potassium chloride was added to cause contraction.

In series [1] the test system is spontaneously hypertensive rats. Kind of series: Antihypertensive activity in spontaneously hypertensive rats (oral, tail-cuff). The series is classed as in vivo, rat. The note with it: for ED (50 mmHg): Rattus norvegicus, systolic blood pressure, read-out: ED50mmHg (effective dose for reducing blood pressure by 50 mmHg); for Max. increase of Heat Rate / Time for Onset of Max. Activity: dose reducing blood pressure by 50 to 60 mmHg. How it is done:
Male spontaneously hypertensive rats (16 to 20-week-old; body weight: 300-400 g) fed ab lib. were forceably given oral administration of a test compound suspended in 0.5% (w/v) carboxymethyl cellulose aqueous solution. After 1, 2, 4, 6, 8, 24, 30 or 48 hours from the administration, the systolic blood pressure was measured by a tail-cuff method described in Arzneimittel-Forschung, Vol. 18, pp. 1285-1287 (1968)).
The antihypertensive activity of the test compound was obtained as an effective dose for reducing blood pressure by 50 mmHg (ED50mmHg). Further, the time of onset of the maximum activity and the maximum increase in heart rate at a dose for reducing blood pressure by 50 to 60 mmHg were measured.
The statistical difference between a test compound and EMD57283 was analyzed by the Student's t-test.

The test system is the same in series [2]. Description: Effect on renal blood flow (Doppler probe). The series is classed as in vivo, rat. The settings on record: for Increase in Renal Blood Flow 1 Hr after Administration: oral, dose which reduced blood pressure by about 50 mmHg; for activity in increasing the renal blood flow vs reference drug (in words): vs EMD57283. How it is done:
Twenty-week-old male spontaneously hypertensive rats (body weight: 350-430 g) were anesthetized with pentobarbital (30 mg/kg, i.p.). An incision was made in the abdomen on the left side, and a Doppler probe for blood flow measurement was fitted to the left renal artery, and the code (wire lead) of the probe was passed under the back skin and taken out from the back of the neck. After 1 week from the operation, the code of the probe was connected to a Doppler blood flow meter to start measurement of the renal blood flow. After the renal blood flow reached to a steady state, a test compound was orally administered, and changes in renal blood flow were observed up to 9 hours. The test compound was used at a dose which reduced blood pressure by about 50 mmHg.

The test system of another series is male HOS-Donryu rats. Description: Antianginal activity, vasopressin-induced ST segment depression. The note with it: i.v.; Example 47 0.01, Nifedipine 0.03, Cromakalim 0.01 mg/kg; vasopressin 0.5 U/kg. The series is classed as in vivo, rat. As for the experimental part:
The test was carried out in accordance with the method of Hiramatsu, et al. (see Japanese Journal of Pharmacology, Vol. 20, p. 313 (1970)). […] A cannula for blood pressure measurement was inserted into the left femoral artery, and a cannula for drug administration was inserted into the left femoral vein. […] Then, ECG was taken every 30 seconds over a period of 5 minutes to observe depression of the ST segment. A control group was given the solvent for the drug (a solution in which 5% dimethyl sulfoxide, 5% polyethylene glycol 200 and 1% cremophor were dissolved in physiological saline).

T1 sequence (Q63563 1-1545 isoform Q63563-2): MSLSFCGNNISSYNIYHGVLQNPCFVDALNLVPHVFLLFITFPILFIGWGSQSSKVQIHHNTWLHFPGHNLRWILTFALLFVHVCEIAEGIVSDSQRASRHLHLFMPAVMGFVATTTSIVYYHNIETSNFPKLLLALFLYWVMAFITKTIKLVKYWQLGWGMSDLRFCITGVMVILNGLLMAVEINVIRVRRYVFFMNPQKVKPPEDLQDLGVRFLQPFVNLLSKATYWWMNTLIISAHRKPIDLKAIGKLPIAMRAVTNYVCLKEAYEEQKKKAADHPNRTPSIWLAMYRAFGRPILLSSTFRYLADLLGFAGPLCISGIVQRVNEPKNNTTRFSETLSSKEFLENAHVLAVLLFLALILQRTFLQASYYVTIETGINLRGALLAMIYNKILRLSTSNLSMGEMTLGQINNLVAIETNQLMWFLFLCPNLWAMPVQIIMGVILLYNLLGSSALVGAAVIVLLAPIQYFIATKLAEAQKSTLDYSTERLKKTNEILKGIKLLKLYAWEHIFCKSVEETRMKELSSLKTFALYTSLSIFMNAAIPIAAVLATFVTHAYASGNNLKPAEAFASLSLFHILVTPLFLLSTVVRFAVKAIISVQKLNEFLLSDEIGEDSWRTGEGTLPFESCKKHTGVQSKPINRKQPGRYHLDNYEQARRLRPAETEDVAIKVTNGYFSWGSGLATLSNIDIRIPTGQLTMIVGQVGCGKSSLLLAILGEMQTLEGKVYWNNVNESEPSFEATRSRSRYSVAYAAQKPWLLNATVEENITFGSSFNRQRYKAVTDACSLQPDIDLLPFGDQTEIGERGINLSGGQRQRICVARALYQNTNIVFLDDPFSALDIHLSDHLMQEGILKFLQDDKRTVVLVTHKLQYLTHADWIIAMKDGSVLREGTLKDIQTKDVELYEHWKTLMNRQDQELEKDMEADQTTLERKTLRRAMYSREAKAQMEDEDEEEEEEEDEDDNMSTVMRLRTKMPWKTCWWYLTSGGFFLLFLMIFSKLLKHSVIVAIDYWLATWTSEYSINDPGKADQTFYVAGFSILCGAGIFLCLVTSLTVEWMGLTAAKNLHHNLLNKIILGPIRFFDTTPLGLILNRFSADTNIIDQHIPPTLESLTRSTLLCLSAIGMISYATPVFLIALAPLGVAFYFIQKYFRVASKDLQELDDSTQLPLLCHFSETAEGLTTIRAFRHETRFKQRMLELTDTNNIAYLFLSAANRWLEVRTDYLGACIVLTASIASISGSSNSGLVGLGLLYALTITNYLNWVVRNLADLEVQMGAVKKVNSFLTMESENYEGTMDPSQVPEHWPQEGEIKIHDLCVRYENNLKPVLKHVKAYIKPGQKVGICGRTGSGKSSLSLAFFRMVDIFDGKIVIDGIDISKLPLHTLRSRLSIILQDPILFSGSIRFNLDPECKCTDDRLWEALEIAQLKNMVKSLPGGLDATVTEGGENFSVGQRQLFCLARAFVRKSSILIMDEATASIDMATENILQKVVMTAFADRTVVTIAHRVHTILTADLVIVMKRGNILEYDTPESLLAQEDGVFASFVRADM
T1 sequence (Q63664 whole entry partner): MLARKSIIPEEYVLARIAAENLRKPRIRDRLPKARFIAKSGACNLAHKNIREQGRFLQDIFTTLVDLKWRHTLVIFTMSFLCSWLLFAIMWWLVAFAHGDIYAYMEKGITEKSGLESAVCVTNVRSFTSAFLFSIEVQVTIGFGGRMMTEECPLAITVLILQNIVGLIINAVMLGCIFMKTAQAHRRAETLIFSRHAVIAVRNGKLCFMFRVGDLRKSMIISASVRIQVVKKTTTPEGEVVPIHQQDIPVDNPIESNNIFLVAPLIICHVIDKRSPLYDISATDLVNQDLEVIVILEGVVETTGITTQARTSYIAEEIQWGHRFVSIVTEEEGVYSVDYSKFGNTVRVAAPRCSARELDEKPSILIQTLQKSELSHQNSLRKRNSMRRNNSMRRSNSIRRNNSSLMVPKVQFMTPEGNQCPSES

As for `CN1N=C(O[C@@H]2c3cc(C#N)ccc3OC(C)(C)[C@H]2O)C2CC2C1=O` (relative stereo) [Example 22, (3S,4R,1'R*,6'S*)-3,4-dihydro-2,2-dimethyl-3-hydroxy-4-(3-methyl-2-oxo-3,4-diazabicyclo(4.1.0]hept-4-en-5-yloxy)-2H-benzopyran-6-carbonitrile], on Potassium channel, the “potassium channel opening activity (in words)” value is on record as “possesses potassium channel opening activity” and the “ECAUC0.2 (effective concentration at which the area under the peak of the 86Rb release rate reached 0.2)” value was found to be 0.18.

`C=CCN1N=C(O[C@@H]2c3cc(C#N)ccc3OC(C)(C)[C@H]2O)C2CC2C1=O` (relative stereo) [Example 23, (3S,4R,1'R*,6'S*)-4-(3-allyl-2-oxo-3,4-diazabicyclo[4.1.0]hept-4-en-5-yloxy)-3,4-dihydro-2,2-dimethyl-3-hydroxy-2H-1-benzopyran-6-carbonitrile]: in the series with Guinea Pig Tracheae, the “activity in relaxing tracheal smooth muscle vs cromakalim (in words)” value (“activity … vs cromakalim (in words)” for short) is listed as “more potent activity in relaxing tracheal smooth muscle than cromakalim” and the EC50 amounted to 5.5 µM. At Potassium channel, the “potassium channel opening activity (in words)” value is “possesses potassium channel opening activity” and the “ECAUC0.2 (effective concentration at which the area under the peak of the 86Rb release rate reached 0.2)” value is recorded as 0.18.

As for `C#CCN1N=C(O[C@@H]2c3cc(C#N)ccc3OC(C)(C)[C@H]2O)C2CC2C1=O` (relative stereo) [Example 24, (3S, 4R, 1'R*,6'S*)-3,4-dihydro-2,2-dimethyl-3-hydroxy-4-(2-oxo-3-(2-propyn-1-yl)-3,4-diazabicyclo[4.1.D]hept-4-en-5-yloxy)-2H-1-benzopyran-6-carbonitrile], in series [1], the “antihypertensive activity (in words)” value was “potent antihypertensive activity”, the “duration of activity (in words)” value is on record as “long duration of activity”, the ED (50 mmHg) came out at 0.02 mg/kg and the “Max. increase of Heat Rate” value is given as 22.2 ± 2.3%. Further, the “Time for Onset of Max. Activity” value in series [1] is 5.6 ± 1.2 h.

As for `CC(C)=CCN1N=C(O[C@@H]2c3cc(C#N)ccc3OC(C)(C)[C@H]2O)C2CC2C1=O` (relative stereo) [Example 29, (3S,4R,1'R*,6'S*)-3,4-dihydro-2,2-dimethyl-3-hydroxy-4-(3-(3-methyl-2-buten-1-yl)-2-oxo-3,4-diazabicyclo[4.1.0]hept-4-en-5-yloxy)-2H-1-benzopyran-6-carbonitrile], in the series on Guinea Pig Tracheae, the “activity … vs cromakalim (in words)” value is “more potent activity in relaxing tracheal smooth muscle than cromakalim” and the EC50 came to 3 µM.

For `CCCCN1N=C(O[C@@H]2c3cc(C#N)ccc3OC(C)(C)[C@H]2O)C2CC2C1=O` (relative stereo) [Example 32, (3S,4R,1'R*,6'S*)-4-(3-n-butyl-2-oxo-3,4-diazabicyclo(4.1.0]hept-4-en-5-yloxy)-3,4-dihydro-2,2-dimethyl-3-hydroxy-2H-1-benzopyran-6-carbonitrile], in the series with Guinea Pig Tracheae, the “activity … vs cromakalim (in words)” value is “more potent activity in relaxing tracheal smooth muscle than cromakalim” and the EC50 was 5 µM. Moreover, in series [1], the “antihypertensive activity (in words)” value is reported as “potent antihypertensive activity”, the “duration of activity (in words)” value is given as “long duration of activity”, the ED (50 mmHg) came to 0.076 mg/kg and the “Max. increase of Heat Rate” value is listed as 22.3 ± 5.9%. The “Time for Onset of Max. Activity” value in series [1] stood at 6.0 ± 0.6 h.

In the case of `CC1(C)Oc2ccc(C#N)cc2[C@@H](OC2=NN(Cc3c(Cl)cccc3Cl)C(=O)C3CC23)[C@@H]1O` (relative stereo) [Example 36, (3S,4R,1'R*,6'S*)-4-(3-(2,6-dichlorobenzyl)-2-oxo-3,4-diazabicyclo[4.1.0]hept-4-en-5-yloxy)-3,4-dihydro-2,2-dimethyl-3-hydroxy-2H-1-benzopyran-6-carbonitrile], in series [2], the “Increase in Renal Blood Flow 1 Hr after Administration” value (from here on “Increase in Renal Blood Flow 1 Hr”) was determined as 15.4 ± 4.5% and the “activity in increasing the renal blood flow vs reference drug (in words)” value is recorded as “more potent activity in increasing the renal blood flow than the reference drug”. Also, in series [1], the “antihypertensive activity (in words)” value is “potent antihypertensive activity”, the “duration of activity (in words)” value is listed as “long duration of activity”, the ED (50 mmHg) was determined as 0.4 mg/kg and the “Max. increase of Heat Rate” value is 9.6 ± 1.3%. For the same compound, the “Time for Onset of Max. Activity” value in series [1] was 6.8 ± 0.5 h.

Regarding `CC1(C)Oc2ccc(C#N)cc2[C@@H](OC2=NN(Cc3ccc(Cl)cc3Cl)C(=O)C3CC23)[C@@H]1O` (relative stereo) [Example 37, (3S,4R,1'R*,6'S*)-4-(3-(2,4-dichlorobenzyl)-2-oxo-3,4-diazabicyclo[4.1.0]hept-4-en-5-yloxy)-3,4-dihydro-2,2-dimethyl-3-hydroxy-2H-1-benzopyran-6-carbonitrile], in series [1], the “antihypertensive activity (in words)” value is given as “potent antihypertensive activity”, the “duration of activity (in words)” value is reported as “long duration of activity”, the ED (50 mmHg) worked out at 0.035 mg/kg and the “Max. increase of Heat Rate” value is on record as 9.2 ± 1.7%. Also, in series [1], the “Time for Onset of Max. Activity” value was found to be 7.6 ± 0.4 h.

With `CN1N=C(O[C@@H]2c3cc(C#N)ccc3OC(C)(C)[C@@]2(C)O)C2CC2C1=O` (relative stereo) [Example 56, (3S,4R,1'R*,6'S*)-3,4-Dihydro-3-hydroxy-4-(3-methyl-2-oxo-3,4-diazabicyclo[4.1.0]hept-4-en-5-yloxy)-2,2,3-trimethyl-2H-1-benzopyran-6-carbonitrile], on Potassium channel, the “potassium channel opening activity (in words)” value is reported as “possesses potassium channel opening activity” and the “ECAUC0.2 (effective concentration at which the area under the peak of the 86Rb release rate reached 0.2)” value was determined as 0.021. In series [1], the “antihypertensive activity (in words)” value is “potent antihypertensive activity”, the “duration of activity (in words)” value is “long duration of activity”, the ED (50 mmHg) was 0.0023 mg/kg and the “Max. increase of Heat Rate” value is recorded as 19.2 ± 0.5%. For the same compound, in series [1], the “Time for Onset of Max. Activity” value was determined as 6.4 ± 0.4 h.

As to `Cn1nc(O[C@@H]2c3cc(C#N)ccc3OC(C)(C)[C@H]2O)ccc1=O` [EMD57283, (3S,4R)3,4-Dihydro-4-((1,6-dihydro-1-methyl-6-oxo-3-pyridazinyl)oxy)-2,2-imethyl-3-hydroxy-2H-1-benzopyran-6-carbonitrile, reference compound], in series [2], the “Increase in Renal Blood Flow 1 Hr” value is 10.8 ± 4.1%. Moreover, at Potassium channel, the “ECAUC0.2 (effective concentration at which the area under the peak of the 86Rb release rate reached 0.2)” value came to 0.16. In addition, in series [1], the ED (50 mmHg) stood at 0.0064 mg/kg, the “Max. increase of Heat Rate” value was found to be 41.3 ± 2.8% and the “Time for Onset of Max. Activity” value stood at 2.8 ± 0.7 h.

Take `CC1(C)Oc2ccc(C#N)cc2[C@@H](OC2=NN(Cc3ccccc3)C(=O)[C@H]3C[C@@H]23)[C@@H]1O` [Example 21, (3S, 4R, 1'S, 6'R)-4-(3-Benzyl-2-oxo-3,4-diazabicyclo[4.1.0]hept-4-en-5-yloxy)-3,4-dihydro-2,2-dimethyl-3-hydroxy-2H-1-benzopyran-6-carbonitrile]: in series [2], the “Increase in Renal Blood Flow 1 Hr” value worked out at 59.4 ± 9.7% and the “activity in increasing the renal blood flow vs reference drug (in words)” value is recorded as “more potent activity in increasing the renal blood flow than the reference drug”. In series [1], the “antihypertensive activity (in words)” value is listed as “potent antihypertensive activity”, the “duration of activity (in words)” value was “long duration of activity”, the ED (50 mmHg) stood at 0.053 mg/kg and the “Max. increase of Heat Rate” value is given as 19.7 ± 3.0%. Moreover, in series [1], the “Time for Onset of Max. Activity” value was determined as 6.4 ± 0.5 h.

For `COC(=O)C1=C(C)NC(C)=C(C(=O)OC)C1c1ccccc1[N+](=O)[O-]` [Nifedipine, reference compound], the “S Value (area of ST segment depression over 5 minutes)” value in the series with male HOS-Donryu rats stood at 393 μV.min.

These data come from patent US5418232A, “Diazabicycloalkene derivatives” (Daiichi Pharmaceutical Co., Ltd., priority 1992, dated 1995).
